Measurements from patent publication US20250163484A1, “Methods for Incorporating Azido Groups in Bacterial Capsular Polysaccharides” (PFIZER INC., priority 2022, published 2025).
Where “and” joins values, the source holds several entries; their conditions need not be identical. Equal entries are not always repeated. Where two headings read alike, the source gives them in different places.

Columns and labels:
S. pneumoniae T14 [1] = assay type: cell-based, Streptococcus pneumoniae serotype 14; details: for Polysacch. Titer: production medium + Galactose (30 g/L) + 2AzGlc (0.25 mM)
Method: FIGS. 1A-1D. Screen for azido sugar incorporation into S. pneumoniae T14 capsule polysaccharide. […] Bacteria were grown until the ΔOD600≥0 for >30 minutes, then lysed with 0.1% NLS for 30 minutes. Growth was measured offline using a spectrophotometer blanked with PBS at 600 nm. (FIG. 1A) azido incorporation into polysaccharide was then quantified via fluorescent labeling (FL) with normalization to refractive index (RI). MaxOD and End Of Fermentation time (EOF) are provided in (FIG. 1B) and (FIG. 1C), respectively. Polysaccharide was extracted using EtOH and CaCl2 and analyzed via SEC-RI for (FIG. 1D) polysaccharide titer. n=1-4, error bars=+/−StDev.
FIGS. 2A-2D Impact of 2AzGlcAc4 concentration on S. pneumoniae T14 growth and poly production in production medium supplemented with Galactose (30 g/L). […] (FIG. 2A) Growth was measured offline using a spectrophotometer blanked with PBS at 600 nm. At the end of fermentation, cultures were lysed with 0.1% NLS for 30 min. and polysaccharide was extracted via EtOH/CaCl2) precipitation. Polysaccharide titer (FIG. 2B) and size (FIG. 2C) were measured via SEC-RI and SEC-MALS, respectively. (FIG. 2D) azido incorporation was then quantified via fluorescent labeling (FL) and normalized to the refractive index (RI). n=3, error bars=+/−StDev.
FIGS. 3A-3E Impact of 2AzGlc concentration on S. pneumoniae T14 growth and polysaccharide production in production medium supplemented with Galactose (30 g/L). […] (FIG. 3A) Growth was measured offline using a spectrophotometer blanked with PBS at 600 nm. Cultures were lysed with 0.1% NLS for 30 min. and polysaccharide was extracted via EtOH/CaCl2) precipitation. Polysaccharide (FIG. 3B/FIG. 3C) titer and (FIG. 3D) size were measured via SEC-RI and SEC-MALS, respectively. (FIG. 3E) azido incorporation was then quantified via fluorescent labeling (FL) and normalized to the refractive index (RI). n=3, error bars=+/−StDev.
(§1) We tested the impact of 2AzGlc concentration on S. pneumoniae T14 growth, polysaccharide production, and azido incorporation by growing the bacteria in production media (supplemented with Glucose (dextrose, 30 g/L)) with various concentrations of 2AzGlc (0, 1, 5, 10, 20, 40, and 60 mM).

S. pneumoniae T14 [2] = assay: Growth of S. pneumoniae T14 in fermentation with azido sugar (OD600); assay type: cell-based, Streptococcus pneumoniae serotype 14; details: production media + 2AzGlc (10 mM)
Method: FIGS. 1A-1D. Screen for azido sugar incorporation into S. pneumoniae T14 capsule polysaccharide. Vessels (100 mL working volume) were inoculated with a 10-fold dilution of bacteria grown in seed expansion media supplemented with Galactose (30 g/L) (OD600=1.0-1.2) and incubated at 36° C. and 173 rpm with an air overlay of 1.5 SLPH. Media (production medium supplemented with Glucose (30 g/L) (black bars) or production medium supplemented with Galactose (30 g/L) (grey bars)) pH was controlled at 7.0. Bacteria were grown until the ΔOD600≥0 for >30 minutes, then lysed with 0.1% NLS for 30 minutes. Growth was measured offline using a spectrophotometer blanked with PBS at 600 nm. (FIG. 1A) azido incorporation into polysaccharide was then quantified via fluorescent labeling (FL) with normalization to refractive index (RI). MaxOD and End Of Fermentation time (EOF) are provided in (FIG. 1B) and (FIG. 1C), respectively. Polysaccharide was extracted using EtOH and CaCl2 and analyzed via SEC-RI for (FIG. 1D) polysaccharide titer. n=1-4, error bars=+/−StDev.
To identify azido sugars that could incorporate into S. pneumoniae T14 capsule, we grew S. pneumoniae T14 (serotype 14) in the production medium supplemented with various azido sugars (Table 3) supplied at 1 mM. We performed our screen using both production medium supplemented with Glucose (dextrose, 30 g/L) and production medium supplemented with Galactose (30 g/L).
as §1
To improve the incorporation of 2AzGlc into S. pneumoniae T14 capsule in production media (supplemented with Glucose (dextrose, 30 g/L)), we performed a 16-vessel DOE designed to test the impact of pH (6.33, 6.66, 7.00, and 7.33) and agitation (100, 200, and 300 rpm) on four response variables (MaxOD, Poly Titer, Poly Size, and FL/RI).

[3] = 2AzGlc titration 0-60 mM, production media + Glucose (dextrose, 30 g/L)

SMILES: [N-]=[N+]=N[C@@H](C=O)[C@@H](O)[C@H](O)[C@H](O)CO [2AzGlc, 2-Azido-2-deoxy-D-glucose]
- max size reduction (S. pneumoniae T14 [1]; [3]): 78%
- max titer loss (S. pneumoniae T14 [1]; [3]): 56%
- concentration at which negative effect on poly production started (S. pneumoniae T14 [1]; 2AzGlc titration, production media + Glucose (dextrose, 30 g/L)): 1 mM
- polysaccharide titers with increasing 2AzGlc concentrations (S. pneumoniae T14 [1]; 2AzGlc titration, production medium + Galactose (30 g/L)): negatively impacted
- Poly Titer (S. pneumoniae T14 [1]; azido feed DOE: Gal 30 g/L, initial 2AzGlc 0 mM, 2AzGlc feed stock 4 mM, pH 7.33, 300 rpm): 0.2358 mg/mL and 0.22 mg/mL
- Poly Titer (S. pneumoniae T14 [1]; azido feed DOE: Gal 30 g/L, initial 2AzGlc 0 mM, 2AzGlc feed stock 6.5 mM, pH 7.33, 300 rpm): 0.1846 mg/mL and 0.189 mg/mL
- Poly Titer (S. pneumoniae T14 [1]; azido feed DOE: Gal 30 g/L, initial 2AzGlc 0.1 mM, 2AzGlc feed stock 4 mM, pH 7.33, 300 rpm): 0.1856 mg/mL and 0.1876 mg/mL
- Poly Titer (S. pneumoniae T14 [1]; azido feed DOE: Gal 30 g/L, initial 2AzGlc 0.1 mM, 2AzGlc feed stock 6.5 mM, pH 7.33, 300 rpm): 0.1266 mg/mL and 0.137 mg/mL
- Poly Titer (S. pneumoniae T14 [1]; azido feed DOE: Gal 40 g/L, initial 2AzGlc 0 mM, 2AzGlc feed stock 4 mM, pH 7.33, 300 rpm): 0.2204 mg/mL and 0.1796 mg/mL
- Poly Titer (S. pneumoniae T14 [1]; azido feed DOE: Gal 40 g/L, initial 2AzGlc 0 mM, 2AzGlc feed stock 6.5 mM, pH 7.33, 300 rpm): 0.1826 mg/mL and 0.1536 mg/mL
- Poly Titer (S. pneumoniae T14 [1]; azido feed DOE: Gal 40 g/L, initial 2AzGlc 0.1 mM, 2AzGlc feed stock 4 mM, pH 7.33, 300 rpm): 0.1882 mg/mL and 0.1748 mg/mL
- Poly Titer (S. pneumoniae T14 [1]; azido feed DOE: Gal 40 g/L, initial 2AzGlc 0.1 mM, 2AzGlc feed stock 6.5 mM, pH 7.33, 300 rpm): 0.1251 mg/mL and 0.1011 mg/mL
- polysaccharide production (S. pneumoniae T14 [1]; azido sugar 20 mM without DMSO, production medium + Galactose (30 g/L)): strongly inhibited
- polysaccharide titer (average) (S. pneumoniae T14 [1]; initial galactose 40 g/L, initial 2AzGlc 0.1 mM, 4.0 mM 2AzGlc feed stock): 0.1815 mg/mL
- Poly Titer (S. pneumoniae T14 [1]; production media + 2AzGlc (10 mM), pH 6.33, agitation 100 rpm): 0.39 mg/mL
- Poly Titer (S. pneumoniae T14 [1]; production media + 2AzGlc (10 mM), pH 6.33, agitation 300 rpm): 0.44 mg/mL and 0.42 mg/mL
- Poly Titer (S. pneumoniae T14 [1]; production media + 2AzGlc (10 mM), pH 6.66, agitation 200 rpm): 0.52 mg/mL and 0.47 mg/mL
- Poly Titer (S. pneumoniae T14 [1]; production media + 2AzGlc (10 mM), pH 7, agitation 100 rpm): 0.40 mg/mL and 0.41 mg/mL
- Poly Titer (S. pneumoniae T14 [1]; production media + 2AzGlc (10 mM), pH 7, agitation 300 rpm): 0.43 mg/mL and 0.48 mg/mL
- Poly Titer (S. pneumoniae T14 [1]; production media + 2AzGlc (10 mM), pH 7.33, agitation 100 rpm): 0.36 mg/mL and 0.37 mg/mL
- Poly Titer (S. pneumoniae T14 [1]; production media + 2AzGlc (10 mM), pH 7.33, agitation 200 rpm): 0.41 mg/mL and 0.44 mg/mL
- Poly Titer (S. pneumoniae T14 [1]; production media + 2AzGlc (10 mM), pH 7.33, agitation 300 rpm): 0.41 mg/mL
- Titer (S. pneumoniae T14 [1]; production media + Glucose (dextrose, 30 g/L), media pH 7, 2AzGlc 1 mM): 0.63 mg/mL
- Titer (S. pneumoniae T14 [1]; production media + Glucose (dextrose, 30 g/L), media pH 7, 2AzGlc 5 mM): 0.53 mg/mL
- Titer (S. pneumoniae T14 [1]; production media + Glucose (dextrose, 30 g/L), media pH 7, 2AzGlc 10 mM): 0.43 mg/mL
- Titer (S. pneumoniae T14 [1]; production media + Glucose (dextrose, 30 g/L), media pH 7, 2AzGlc 20 mM): 0.32 mg/mL
- Titer (S. pneumoniae T14 [1]; production media + Glucose (dextrose, 30 g/L), media pH 7.33, 2AzGlc 20 mM): 0.3 mg/mL
- Titer (S. pneumoniae T14 [1]; production media + Glucose (dextrose, 30 g/L), media pH 7.33, 2AzGlc 40 mM): 0.28 mg/mL
- Titer (S. pneumoniae T14 [1]; production media + Glucose (dextrose, 30 g/L), media pH 7.33, 2AzGlc 60 mM): 0.28 mg/mL
- Polysacch. Titer (S. pneumoniae T14 [1]; pH 6.33, agitation 100 rpm): 0.195 mg/mL and 0.193 mg/mL
- Polysacch. Titer (S. pneumoniae T14 [1]; pH 6.33, agitation 200 rpm): 0.171 mg/mL
- Polysacch. Titer (S. pneumoniae T14 [1]; pH 6.33, agitation 300 rpm): 0.087 mg/mL and 0.149 mg/mL
- Polysacch. Titer (S. pneumoniae T14 [1]; pH 6.66, agitation 100 rpm): 0.247 mg/mL
- Polysacch. Titer (S. pneumoniae T14 [1]; pH 6.66, agitation 300 rpm): 0.227 mg/mL
- Polysacch. Titer (S. pneumoniae T14 [1]; pH 7, agitation 200 rpm): 0.269 mg/mL
- Polysacch. Titer (S. pneumoniae T14 [1]; pH 7.33, agitation 100 rpm): 0.235 mg/mL and 0.216 mg/mL
- Polysacch. Titer (S. pneumoniae T14 [1]; pH 7.33, agitation 300 rpm): 0.228 mg/mL and 0.211 mg/mL
- polysaccharide titer (S. pneumoniae T14 [1]; screen, azido sugar 1 mM, only in production medium + Galactose): reduced
- MaxOD600 nm (S. pneumoniae T14 [2]; pH 6.33, agitation 100 rpm): 12.1 and 13.6
- MaxOD600 nm (S. pneumoniae T14 [2]; pH 6.33, agitation 300 rpm): 10.8 and 10.7
- MaxOD600 nm (S. pneumoniae T14 [2]; pH 7, agitation 100 rpm): 8.8 and 7.8
- MaxOD600 nm (S. pneumoniae T14 [2]; pH 7.33, agitation 100 rpm): 8.9 and 9.6
- MaxOD600 nm (S. pneumoniae T14 [2]; pH 7.33, agitation 200 rpm): 8.5 and 8.3
